Structures are written as SMILES. Like-named read-outs stand apart in the source and are kept apart here.

Holding throughout (type): cell-based
One assay relates to RS4;11-BCL-2 G101V cells. In words: Cell proliferation assay, engineered RS4;11 cells stably overexpressing BCL-2 G101V (MTS, 168 h). Conditions: read-out: RS4, 11 BCL2- G101V. How it is done:
(§1) MTS testing kit was purchased from Promega (Madison, Wis., USA). The RPMI-1640, Fetal bovine serum and Penicillin-Streptomycin were purchased from BI (Biological Industries, Beit Haemek, Israel). Puromycin was purchased from Beyotime (shanghai, China). Dimethyl sulfoxide (DMSO) was purchased from Sigma (St. Louis, Mo., USA). RS4;1l-BCL-2 G101V and RS4;11-BCL-2 F104L cells were cultured in RPM11640 supplemented with 1 ug/mL puromycin, 100 U/mL Penicillin-Streptomycin and 10% FBS.
(§2) To investigate whether a compound is able to inhibit the activity of BCL-2 mutation in cells, a mechanism-based assay using engineered cell lines stably overexpressing BCL-2 mutation ([…] and […]) was developed. In this assay, the inhibition of BCL-2 mutation was reflected by the inhibition of cell proliferation of RS4;11-BCL-2 G101V and RS4;11-BCL-2 F104L cells. Cells were plated into 96-well plates at optimized cell density (RS4;11-BCL-2 G101V: 5000 cells/well; RS4;11-BCL-2 F104L: 5000 cells/well). Plates were incubated at 37° C., with 5% CO2 for 4 h. Compounds were serially diluted to the final-concentrations of 10000, 3333.3, 1111.1, 370.4, 123.5, 41.2, 13.7, 4.6 and 1.4 nM and added to the plates. Plates were incubated at 37° C., with 5% CO2 for 168 h. 20 μl MTS was added into each well and the plates were incubated at 37° C., with 5% CO2 exactly for 2 h. The absorbance was measured by a microplate reader at 490 nm. IC50 values were calculated using GraphPad Prism 5.0 software.

Another assay relates to RS4;11-BCL-2 F104L cells. In words: Cell proliferation assay, engineered RS4;11 cells stably overexpressing BCL-2 F104L (MTS, 168 h). The note with it: Homo sapiens, read-out: RS4, 11 BCL2-F104L. The protocol:
as §1, §2

A further assay concerns Toledo cells. In words: Cell proliferation assay, Toledo cells (MTS, 72 h). The note with it: Toledo cells, MTS, read-out: Toledo IC50. Put shortly:
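Toledo cells (30000/well, RPMI-1640 with 10% FBS) were preincubated for 4 h. They were then exposed to nine compound concentrations from 10000 to 1.5 nM for 72 h at 37 °C, 5% CO2. MTS was added for 2 h and absorbance read at 490 nm to give IC50.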

On to `COC(C)COc1nc2[nH]cc(F)c2cc1Oc1cc(N2CCC3(CC2)CC(N2CCC[C@H]2c2ccccc2C(C)C)C3)ccc1C(=O)NS(=O)(=O)c1cc2c(c([N+](=O)[O-])c1)N[C@@H]([C@H]1CC[C@](C)(O)CC1)CO2` (single isomer, unassigned) [Example D-243, 2-((3-fluoro-6-(2-methoxypropoxy)-1H-pyrrolo[2,3-b]pyridin-5-yl)oxy)-N-(((S)-3-((1r,4S)-4-hydroxy-4-methylcyclohexyl)-5-nitro-3,4-dihydro-2H-benzo[b][1,4]oxazin-7-yl)sulfonyl)-4-(2-((R or S)-2-(2-isopropylphenyl)pyrrolidin-1-yl)-7-azaspiro[3.5]nonan-7-yl)benzamide], for which the IC50 in the assay with RS4;11-BCL-2 G101V cells (Homo sapiens, RS4-11, 168 h) worked out at 10 nM; in the assay with RS4;11-BCL-2 F104L cells, 1 nM.

Take `COC(C)COc1nc2[nH]cc(F)c2cc1Oc1cc(N2CCC3(CC2)CN([C@H]2CCC[C@H]2c2ccccc2C(C)C)C3)ccc1C(=O)NS(=O)(=O)c1cnc(NC[C@H]2CC[C@](C)(O)CC2)c([N+](=O)[O-])c1` (single isomer, unassigned) [Example A-155, 2-((3-fluoro-6-(2-methoxypropoxy)-1H-pyrrolo[2,3-b]pyridin-5-yl)oxy)-N-((6-((((1r,4r)-4-hydroxy-4-methyl-cyclohexyl)methyl)amino)-5-nitro-pyridin-3-yl)sulfonyl)-4-(2-((1S,2S or 1R,2R)-2-(2-isopropylphenyl)cyclo-pentyl)-2,7-diazaspiro[3.5]nonan-7-yl) benzamide]: the IC50 turned out to be 13 nM with RS4;11-BCL-2 G101V cells (Homo sapiens, RS4-11, 168 h) and 1 nM in the assay on RS4;11-BCL-2 F104L cells.

Turning to `COC(C)COc1nc2[nH]cc(F)c2cc1Oc1cc(N2CCC3(CC2)CN([C@H]2CCC[C@H]2c2ccccc2C(C)C)C3)ccc1C(=O)NS(=O)(=O)c1ccc(NC[C@H]2CC[C@](C)(O)CC2)c([N+](=O)[O-])c1` (single isomer, unassigned) [Example D-233, 2-((3-fluoro-6-(2-methoxypropoxy)-1H-pyrrolo[2,3-b]pyridin-5-yl)oxy)-N-((4-(((1r,4r)-4-hydroxy-4-methylcyclohexyl)methyl)amino)-3-nitrophenyl)sulfonyl)-4-(2-((1S,2S or 1R,2R)-2-(2-isopropylphenyl)cyclopentyl)-2,7-diazaspiro[3.5]nonan-7-yl)benzamide], the IC50 in the assay on RS4;11-BCL-2 G101V cells (Homo sapiens, RS4-11, 168 h) amounted to 14 nM; in the assay on RS4;11-BCL-2 F104L cells, 4 nM.

`CCOc1nc2[nH]ccc2cc1Oc1cc(N2CCC3(CC2)CN([C@H]2CCC[C@H]2c2ccccc2C(C)C)C3)ccc1C(=O)NS(=O)(=O)c1cnc(NC[C@H]2CC[C@](C)(O)CC2)c([N+](=O)[O-])c1` (single isomer, unassigned) [Example A-161, 2-((6-ethoxy-1H-pyrrolo[2,3-b]pyridin-5-yl)oxy)-N-((6-(((1r,4r)-4-hydroxy-4-methylcyclohexyl)methyl)amino)-5-nitropyridin-3-yl)sulfonyl)-4-(2-((1S,2S or 1R,2R)-2-(2-isopropylphenyl)cyclo-pentyl)-2,7-diazaspiro[3.5]nonan-7-yl) benzamide]: the IC50 in the assay with Toledo cells (Homo sapiens) came out at 1 nM; in the assay with RS4;11-BCL-2 G101V cells (Homo sapiens, RS4-11, 168 h), 2 nM.

For the compound `CC(C)c1ccccc1[C@@H]1CCC[C@@H]1N1CC2(CCN(c3ccc(C(=O)NS(=O)(=O)c4cc5c(c([N+](=O)[O-])c4)N[C@@H]([C@H]4CC[C@](C)(O)CC4)CO5)c(Oc4cnc5[nH]cc(F)c5c4)c3)CC2)C1` (single isomer, unassigned) [Example D-28, 2-((3-fluoro-1H-pyrrolo[2,3-b]pyridin-5-yl)oxy)-N-(((S)-3-((1r,4S)-4-hydroxy-4-methylcyclohexyl)-5-nitro-3,4-dihydro-2H-benzo[b] [1,4]oxazin-7-yl)sulfonyl)-4-(2-((1S,2S or 1R,2R)-2-(2-isopropylphenyl)cyclopentyl)-2,7-diazaspiro[3.5]nonan-7-yl)benzamide], the values for the IC50 in the assay on Toledo cells (Homo sapiens) and with RS4;11-BCL-2 G101V cells were 1 nM and 13 nM, respectively.

Consider `CC(C)c1ccccc1[C@@H]1CN(S(C)(=O)=O)CCN1C1CC2(CCN(c3ccc(C(=O)NS(=O)(=O)c4cc5c(c([N+](=O)[O-])c4)N[C@@H]([C@H]4CC[C@](C)(O)CC4)CO5)c(Oc4cnc5[nH]cc(F)c5c4)c3)CC2)C1` (single isomer, unassigned) [Example D-80, 2-((3-fluoro-1H-pyrrolo[2,3-b]pyridin-5-yl)oxy)-N-(((S)-3-((1r,4S)-4-hydroxy-4-methylcyclohexyl)-5-nitro-3,4-dihydro-2H-benzo[b] [1,4]oxazin-7-yl)sulfonyl)-4-(2-((R or S)-2-(2-isopropylphenyl)-4-(methylsulfonyl)piperazin-1-yl)-7-azaspiro[3.5]nonan-7-yl)benzamide], for which the IC50 in the assay with Toledo cells (Homo sapiens) is 1 nM; in the assay with RS4;11-BCL-2 G101V cells (Homo sapiens, RS4-11, 168 h), 8 nM.

Take `COc1nc2[nH]ccc2cc1Oc1cc(N2CCC3(CC2)CN([C@H]2CCC[C@H]2c2ccccc2C(C)C)C3)ccc1C(=O)NS(=O)(=O)c1cc2c(c([N+](=O)[O-])c1)N[C@@H]([C@H]1CC[C@](C)(O)CC1)CO2` (single isomer, unassigned) [Example D-97, N-(((S)-3-((1r,4S)-4-hydroxy-4-methylcyclohexyl)-5-nitro-3,4-dihydro-2H-benzo[b][1,4]oxazin-7-yl)sulfonyl)-4-(2-((1S,2S or 1R,2R)-2-(2-isopropylphenyl)cyclopentyl)-2,7-diazaspiro[3.5]nonan-7-yl)-2-((6-methoxy-1H-pyrrolo [2,3-b]pyridin-5-yl)oxy)benzamide]: the IC50 amounted to 1 nM in the assay with Toledo cells (Homo sapiens) and 12 nM in the assay with RS4;11-BCL-2 G101V cells (Homo sapiens, RS4-11, 168 h).

As for `CO[C@@H](C)COc1nc2[nH]ccc2cc1Oc1cc(N2CCC3(CC2)CC(N2CCC[C@H]2c2ccccc2C(C)C)C3)ccc1C(=O)NS(=O)(=O)c1cc2c(c([N+](=O)[O-])c1)N[C@@H]([C@H]1CC[C@](C)(O)CC1)CO2` (single isomer, unassigned) [Example D-202, N-(((S)-3-((1r,4S)-4-hydroxy-4-methylcyclohexyl)-5-nitro-3,4-dihydro-2H-benzo[b][1,4]oxazin-7-yl)sulfonyl)-4-(2-((R or S)-2-(2-isopropylphenyl)pyrrolidin-1-yl)-7-azaspiro[3.5]nonan-7-yl)-2-((6-((S)-2-methoxypropoxy)-1H-pyrrolo[2,3-b]pyridin-5-yl)oxy)benzamide], the IC50 in the assay on Toledo cells (Homo sapiens) was determined as 1 nM; in the assay on RS4;11-BCL-2 G101V cells (Homo sapiens, RS4-11, 168 h), 2 nM.

Take `CC(C)c1ccccc1[C@@H]1CCC[C@@H]1N1CC2(CCN(c3ccc(C(=O)NS(=O)(=O)c4cc5c(c([N+](=O)[O-])c4)N[C@@H]([C@H]4CC[C@](C)(O)CC4)CO5)c(Oc4cc5c(F)c[nH]c5nc4Cl)c3)CC2)C1` (single isomer, unassigned) [Example D-106, 2-((6-chloro-3-fluoro-1H-pyrrolo [2,3-b]pyridin-5-yl)oxy)-N-(((S)-3-((1r,4S)-4-hydroxy-4-methylcyclohexyl)-5-nitro-3,4-dihydro-2H-benzo[b][1,4]oxazin-7-yl)sulfonyl)-4-(2-((1S,2S or 1R,2R)-2-(2-isopropylphenyl)cyclopentyl)-2,7-diazaspiro[3.5]nonan-7-yl)benzamide]: the IC50 with Toledo cells (Homo sapiens) is 1 nM; with RS4;11-BCL-2 G101V cells (Homo sapiens, RS4-11, 168 h), 14 nM.

On to `CC(C)c1ccccc1[C@@H]1CCC[C@@H]1N1CC2(CCN(c3ccc(C(=O)NS(=O)(=O)c4cc5c(c([N+](=O)[O-])c4)N[C@@H]([C@H]4CC[C@](C)(O)CC4)CO5)c(Oc4cc5cc[nH]c5nc4Cl)c3)CC2)C1` (single isomer, unassigned) [Example D-101, 2-((6-chloro-1H-pyrrolo2,3-b]pyridin-5-yl)oxy)-N-(((S)-3-((1r,4S)-4-hydroxy-4-methylcyclohexyl)-5-nitro-3,4-dihydro-2H-benzo[b] [1,4]oxazin-7-yl)sulfonyl)-4-(2-((1S,2S or 1R,2R)-2-(2-isopropylphenyl)cyclopentyl)-2,7-diazaspiro[3.5] nonan-7-yl)benzamide], for which the IC50 turned out to be 1 nM in the assay with Toledo cells (Homo sapiens) and 19 nM in the assay with RS4;11-BCL-2 G101V cells (Homo sapiens, RS4-11, 168 h).

With `CC(C)c1ccccc1[C@@H]1CCC[C@@H]1N1CC2(CCN(c3ccc(C(=O)NS(=O)(=O)c4cc5c(c([N+](=O)[O-])c4)N[C@@H]([C@H]4CC[C@](C)(O)CC4)CO5)c(Oc4cnc5[nH]cc(F)c5c4)c3)CC2)C1` (single isomer, unassigned) [Example D-28a, 2-((3-fluoro-1H-pyrrolo[2,3-b]pyridin-5-yl)oxy)-N-(((S)-3-((1r,4S)-4-hydroxy-4-methylcyclohexyl)-5-nitro-3,4-dihydro-2H-benzo[b] [1,4]oxazin-7-yl)sulfonyl)-4-(2-((1S,2S or 1R,2R)-2-(2-isopropylphenyl)cyclopentyl)-2,7-diazaspiro[3.5]nonan-7-yl)benzamide], the IC50 in the assay with Toledo cells and in the assay with RS4;11-BCL-2 G101V cells was 1 nM throughout.
